In patent publication US12024499B2, “Muscarinic agonists” (Heptares Therapeutics Limited, priority 2015, dated 2024):

Legend:
Assay type in all cases: cell-based
[1] = biological target: T1, human muscarinic M1 receptor (Homo sapiens, UniProt P11229); test: Alphascreen Surefire phospho-ERK1/2 assay, M1; settings: for EC50: CHO cells stably expressing human M1, agonist 5 min, 37° C., read-out: pEC50 M1 (converted); for Emax: CHO, read-out: % Emax cf. ACh, M1
T1 sequence (P11229 1-460): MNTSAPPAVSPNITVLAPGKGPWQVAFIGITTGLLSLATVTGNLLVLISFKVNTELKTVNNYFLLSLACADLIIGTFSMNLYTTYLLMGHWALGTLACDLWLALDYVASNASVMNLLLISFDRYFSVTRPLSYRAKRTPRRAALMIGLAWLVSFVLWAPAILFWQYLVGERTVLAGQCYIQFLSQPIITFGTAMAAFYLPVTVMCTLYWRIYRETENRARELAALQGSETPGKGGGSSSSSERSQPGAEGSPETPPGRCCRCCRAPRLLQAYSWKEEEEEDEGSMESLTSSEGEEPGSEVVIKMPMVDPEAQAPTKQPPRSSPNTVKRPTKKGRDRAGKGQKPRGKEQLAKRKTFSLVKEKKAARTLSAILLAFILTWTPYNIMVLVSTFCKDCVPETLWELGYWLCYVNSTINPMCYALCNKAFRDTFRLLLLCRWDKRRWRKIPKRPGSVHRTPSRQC
Method: (§1) ERK1/2 phosphorylation is a downstream consequence of both Gq/11 and Gi/o protein coupled receptor activation, making it highly suitable for the assessment of M1, M3 (Gq/11 coupled) and M2, M4 receptors (Gi/o coupled), rather than using different assay formats for different receptor subtypes. CHO cells stably expressing the human muscarinic M1, M2, M3 or M4 receptor were plated (25K/well) onto 96-well tissue culture plates in MEM-alpha+10% dialysed FBS. Once adhered, cells were serum-starved overnight. Agonist stimulation was performed by the addition of 5 μL agonist to the cells for 5 min (37° C.). Media was removed and 50 μL of lysis buffer added. After 15 min, a 4 μL sample was transferred to 384-well plate and 7 μL of detection mixture added. Plates were incubated for 2 h with gentle agitation in the dark and then read on a PHERAstar plate reader.
(§2) pEC50 and Emax figures were calculated from the resulting data for each receptor subtype.

[2] = biological target: T2, human muscarinic M4 receptor (Homo sapiens, UniProt P08173); test: Alphascreen Surefire phospho-ERK1/2 assay, M4; settings: for EC50: CHO cells stably expressing human M4, agonist 5 min, 37° C., read-out: pEC50 M4 (converted); for Emax: CHO, read-out: % Emax cf. ACh, M4
T2 construct: expressed in transfected cells
T2 sequence (P08173 1-479): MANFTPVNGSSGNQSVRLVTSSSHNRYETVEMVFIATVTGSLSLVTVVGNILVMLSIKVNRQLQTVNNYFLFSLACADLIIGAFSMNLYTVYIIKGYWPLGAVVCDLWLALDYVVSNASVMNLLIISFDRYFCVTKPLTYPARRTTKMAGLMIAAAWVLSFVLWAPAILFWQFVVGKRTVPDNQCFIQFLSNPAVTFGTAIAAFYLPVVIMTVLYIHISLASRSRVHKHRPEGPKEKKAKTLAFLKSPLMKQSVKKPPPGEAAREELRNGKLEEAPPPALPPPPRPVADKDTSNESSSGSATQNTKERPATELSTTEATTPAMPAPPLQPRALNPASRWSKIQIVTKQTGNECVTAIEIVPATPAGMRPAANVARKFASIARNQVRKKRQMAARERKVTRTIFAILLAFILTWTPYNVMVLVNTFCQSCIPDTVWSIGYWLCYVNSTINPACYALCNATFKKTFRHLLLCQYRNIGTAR
Method: as §1, §2

[3] = biological target: T3, human muscarinic M2 receptor (Homo sapiens, UniProt P08172); test: Alphascreen Surefire phospho-ERK1/2 assay, M2; settings: for EC50: CHO cells stably expressing human M2, agonist 5 min, 37° C., read-out: pEC50 M2 (converted); for Emax: CHO, read-out: % Emax cf. ACh, M2
T3 sequence (P08172 1-466): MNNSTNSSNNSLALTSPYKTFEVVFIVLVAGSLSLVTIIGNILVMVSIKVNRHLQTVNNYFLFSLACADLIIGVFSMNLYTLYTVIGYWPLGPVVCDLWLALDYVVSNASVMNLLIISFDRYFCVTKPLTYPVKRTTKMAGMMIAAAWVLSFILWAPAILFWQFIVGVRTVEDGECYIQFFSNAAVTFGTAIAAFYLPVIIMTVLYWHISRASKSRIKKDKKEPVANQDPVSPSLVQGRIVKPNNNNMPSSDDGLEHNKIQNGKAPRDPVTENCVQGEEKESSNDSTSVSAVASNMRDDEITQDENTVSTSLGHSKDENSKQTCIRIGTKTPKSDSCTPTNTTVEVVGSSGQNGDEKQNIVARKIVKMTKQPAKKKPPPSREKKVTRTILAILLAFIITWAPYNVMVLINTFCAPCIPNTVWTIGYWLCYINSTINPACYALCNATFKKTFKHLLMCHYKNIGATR
Method: as §1, §2

[4] = biological target: T4, human muscarinic M3 receptor (Homo sapiens, UniProt P20309); test: Alphascreen Surefire phospho-ERK1/2 assay, M3; settings: for EC50: CHO cells stably expressing human M3, agonist 5 min, 37° C., read-out: pEC50 M3 (converted); for Emax: CHO, read-out: % Emax cf. ACh, M3
T4 construct: expressed in transfected cells
T4 sequence (P20309 whole entry): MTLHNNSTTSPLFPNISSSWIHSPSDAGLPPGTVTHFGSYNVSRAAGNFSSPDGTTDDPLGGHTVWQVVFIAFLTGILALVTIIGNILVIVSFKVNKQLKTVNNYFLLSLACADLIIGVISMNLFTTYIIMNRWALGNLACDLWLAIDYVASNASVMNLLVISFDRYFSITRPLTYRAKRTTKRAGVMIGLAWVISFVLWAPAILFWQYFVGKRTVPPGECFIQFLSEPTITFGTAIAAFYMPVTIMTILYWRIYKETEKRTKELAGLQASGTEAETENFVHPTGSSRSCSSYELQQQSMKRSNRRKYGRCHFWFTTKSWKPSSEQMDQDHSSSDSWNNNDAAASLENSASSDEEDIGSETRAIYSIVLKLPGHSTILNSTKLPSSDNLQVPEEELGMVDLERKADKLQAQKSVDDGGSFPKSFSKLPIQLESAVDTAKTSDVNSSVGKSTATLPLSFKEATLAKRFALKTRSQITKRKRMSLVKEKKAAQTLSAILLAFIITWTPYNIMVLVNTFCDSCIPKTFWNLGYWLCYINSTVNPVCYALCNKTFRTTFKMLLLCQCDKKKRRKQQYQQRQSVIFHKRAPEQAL
Method: as §1, §2

Compound | EC50 [1] [nM] | Emax [1] [%] | EC50 [2] [nM] | Emax [2] [%] | EC50 [3] [nM] | Emax [3] [%] | EC50 [4] [nM] | Emax [4] [%]
CCOC(=O)N1CCC2(CC(N3CCC(N4CC(F)(F)C4)CC3)C2)C1 (single isomer, unassigned) [Example 1-1, Ethyl 2-[4-(3,3-difluoroazetidin-1-yl)piperidin-1-yl]-6-azaspiro[3.4]octane-6-carboxylate] | 1000 | 24 | 158 | 26 |  |  |  | 
CCOC(=O)N1CCC2(CC(N3CCC(N4CC[C@@H]4C(=O)OC)CC3)C2)C1 (single isomer, unassigned) [Example 1-2] | > 20000 | 37 | 63.1 | 67 | > 20000 | 7 | > 20000 | 7
CCOC(=O)N1CCC2(CC(N3CCC(N4CCC4=O)CC3)C2)C1 (single isomer, unassigned) [Example 1-3, Ethyl 2-[4-(2-oxoazetidin-1-yl)piperidin-1-yl]-6-azaspiro[3.4]octane-6-carboxylate] | > 20000 | 20 | 200 | 23 |  |  |  | 
CCOC(=O)N1CCC2(CC(N3CCC(N4C(=O)C[C@@H]4C)CC3)C2)C1 (single isomer, unassigned) [Example 1-4] | > 20000 | 18 | 158 | 41 |  |  |  | 
CCOC(=O)N1CCC2(CC(N3CCC(N4C(=O)C[C@@H]4CC)CC3)C2)C1 (single isomer, unassigned) [Example 1-5] | 316 | 69 | 100 | 56 | > 20000 | 37 | > 20000 | 0
CCOC(=O)N1CCC2(CC(N3CCC(N4C(=O)C[C@H]4C)CC3)C2)C1 (single isomer, unassigned) [Example 1-6] | > 20000 | 13 | 251 | 74 |  |  |  | 
CCOC(=O)N1CCC2(CC(N3CCC(N4C(=O)C[C@H]4CC)CC3)C2)C1 (single isomer, unassigned) [Example 1-7] | 794 | 94 | 79.4 | 101 | 501 | 26 | > 20000 | 21
